Assay results: US11944688B2, “Biologically active compounds” (SUTURA THERAPEUTICS LTD, priority 2015, dated 2024)
Positions of bridges follow the written chain, without caps; N, C: chain ends. Non-standard residues stand in square brackets, D forms with d. No end group written: not given here. {FITC} = fluorescein isothiocyanate label; S5 = C=CCCC[C@](C)(N)C(=O)O; {NH2} = amine group

Assays:
[1] = test system: HEK293T cells; assay: Uptake into HEK293T cells by flow cytometry; type: cell-based, human; settings: 4 hours
Description: FIG. 11 is the analysis of PMO uptake into HEK293T cells by flow cytometry. Cells were incubated without PMO or with 1 μM PMO, 1 μM PMO-C8M or 1 μM PMO-CP8M-NC (all fluorescein-labelled) at 37° C. for 4 hours. Fluorescence was measured after washing the cells with PBS.
HEK293T cells (Human embryonic kidney) were cultured in high glucose DMEM supplemented with 10% foetal calf serum (Sigma, UK) at 37° C. under an 8% CO2/92% air atmosphere.
(§1) U2OS cells were incubated with PMO or PMO-CP8M at increasing concentration (0.5 μM, 1.0 μM, 5.0 μM and 10 μM) with […] transfection reagent; H2K mdx mouse myoblasts were incubated with PMO or PMO-CP8M at 5.0 μM: HEK293T cells were incubated with CP8M (1.0 μM, 10 μM and 100 μM) and PMO, PMO-CP8M-NC, PMO-C8M at 1.0 μM. Levels of fluorescence was quantified at 494 nm to determine relative entry of respective compounds by microscopic or flow cytometry methodologies.
Uptake of fluorescently-labelled PMO was determined by flow cytometry using an Accuri C6 flow cytometer. PMO-transfected cells were released with trypsin, washed in PBS and kept on ice before analysis. Cell fluorescence in single live cells was determined using FlowJo software after appropriate gating. Untreated cells were used to establish gating settings for the determination of the % fluorescein-positive cells.

[2] = test system: dystrophin; assay: Dystrophin immunostaining of cerebellum after systemic administration in mdx mice; type: in vivo; settings: single 1 μmol/kg intravenous, without fluorescent label, 7 days, n=1 per group
Description: All dose are given in respect of the molarity of PMO [* denotes non fluorescent labelled PMO]. Cerebella were recovered 7 days post administration; and
(§2) mdx mice, with access to chow and water ad libitum, were used in all experiments. All experiments were carried out in the Animal unit, School of Biological Science, University of Reading, Reading, UK according to procedures authorized by the UK Home Office. Mice were killed by CO2 inhalation or cervical dislocation at desired time points, and muscles and other tissues were snap-frozen in liquid nitrogen-cooled isopentane and stored at −80° C.
(§3) Intramuscular administrations: Tibialis anterior muscles of mdx mice were injected with either 2.2 nmol PMO or 2.2 nmol PMO-CP8M under isoflurane anaesthesia. […]
(§4) For skeletal muscle, heart and brain, […] cryosections were cut and dystrophin protein was detected using rabbit polyclonal antibody to dystrophin (ab15277; Abcam, Cambridge, UK). […] For liver, […] cryosections were dried and embedded in fluorescence-compatible mounting medium (Dako), and general fluorescence was assessed microscopically at 494 nm.

[3] = test system: dystrophin; assay: Dystrophin immunostaining of heart muscle after intraperitoneal administration in mdx mice; type: in vivo
From the text: FIG. 18a is of mdx mice following a single intraperitoneal injection of 1 μmol/kg PMO-CP8M or 1 μmol/kg PMO. Muscles were recovered 7 days post administration;
FIG. 18b is following multiple intraperitoneal injections—total 7.6 μmol/kg PMO-CP8M or 7.6 μmol/kg PMO. Muscles were recovered 14 days post administration;
FIG. 18c is following multiple intraperitoneal injections—total 10.9 μmol/kg PMO-CP8M or 10.9 μmol/kg PMO;
FIG. 18d is a graphical representation of the number of cardiac muscle fibre being positive for an immuno-cytochemical staining for dystrophin following a multiple intraperitoneal injections—total 7.6 μmol/kg PMO-CP8M or 7.6 μmol/kg PMO; and
FIG. 18e is a graphical representation of the number of cardiac muscle fibre being positive for an immuno-cytochemical staining for dystrophin following multiple intraperitoneal injections—total 10.9 μmol/kg PMO-CP8M or 10.9 μmol/kg PMO. All dose are given in respect of the molarity of PMO [* denotes non fluorescent labelled PMO]. Hearts were recovered 14 days post administration;
Hearts were recovered 14 days post administration;
as §2, §3, §4

[4] = test system: exon 23 of the mouse dystrophin gene; assay: Exon 23 exclusion in H2K mdx cells, nested RT-PCR; type: cell-based; settings: 5 μM, RT-PCR 901 bp full length / 688 bp exon 23 excluded
Description: 24 hours after incubation with PMO-CP8M or PMO, H2K mdx cells were recovered and RNA isolated. The RNA was reversed transcribed and an amplification between exon 20 and 26 of the mouse dystrophin gene, followed by a nested amplification between exon 20 and 26 was performed to yield a full length product of 901 bp fragment if exon 23 is present or 688 bp fragment if exon 23 is excluded;
(§5) H2K mdx mouse myoblasts were cultured at 33° C. under a 8% CO2/92% air atmosphere in high-glucose DMEM supplemented with 20% foetal calf serum, 0.5% chicken embryo extract (PAA laboratories Ltd, Yeovil, UK), and 20 units/ml γ-interferon (Roche applied science, Penzberg, Germany). Cells were then treated with trypsin and plated at 8×10^4/cm^2 in 24-well plates coated with 0.1 mg/ml ECM gel (Sigma). H2K mdx cells were transfected 24 h after seeding with treatment in a final volume of 0.2 ml of normal growth media. Following 4 hours of transfection, the PMO or PMO-SAP was removed and replaced with DMEM supplemented with 5% horse serum. Fluorescence and RNA extraction was performed 48 hours post transfection.
Total RNA was isolated from H2K mdx mouse myoblasts cells (RNeasy, Qiagen, UK). […]

[5] = test system: dystrophin; assay: Dystrophin immunostaining of Tibialis anterior after intramuscular injection in mdx mice; type: in vivo; settings: single intramuscular 2.2 nmol, 7 days post-administration, n=4
Description: Muscles were recovered 7 day post administration;
All dose are given in respect of the molarity of PMO;
as §2, §3, §4

[6] = test system: H2K mdx mouse myoblasts; assay: Delivery of fluorescently labelled PMO into H2K mdx myoblasts, fluorescence microscopy; type: cell-based; settings: 5 μM, without transfection reagent
Description: as §5, §1

[7] = test system: U2OS cells; assay: Delivery of fluorescently labelled PMO into U2OS cells, fluorescence microscopy; type: cell-based, human; settings: 0.5-10 μM, 4 hours, without transfection reagent
Description: The biologically active compound was a PMO with a sequence:
(an antisense reagent targeted to exon 23 of the mouse dystrophin gene, that causes the exclusion of exon 23 during mRNA splicing maturation); the bi-functional linker was a PEGylated SMCC; and the StaP was RKF-S5-RLF-S5 (SEQ ID NO: 57). This configuration of DCCPM is depicted as PMO-CP8M in the subsequent figs; unconjugated PMO acts as a control. All compounds were added to U2OS cells maintained in culture, without transfection reagent for 4 hours;
U2OS cells (Human osteosarcoma) were cultured in high glucose DMEM supplemented with 10% foetal calf serum (Sigma, UK) at 37° C. under an 8% CO2/92% air atmosphere.
as §1

## CP8M: CPP sequence RKF-S5-RLF-S5 (SEQ ID NO: 57) with PEGylated SMCC as BFL (RKF[S5]RLF[S5]-NH2; staple 4-8; also: PEGylated SMCC as BFL, attachment not given here)
[1]; HEK293T, 1.0, 10 and 100 μM, without transfection reagent
  cellular entry of FITC-labelled CP8M charge variants: dose dependent increase

## PMO: PMO 5′GGCCAAACCTCGGCTTACCTGAAAT3′ targeted to exon 23 of mouse dystrophin gene; 5′ amine, 3′ FITC label; unconjugated control (all phosphorodiamidate morpholino (PMO), 5' {NH2}, 3' {FITC})
[1]; HEK293T, 1 μM, 37° C.
  cell entry of fluorescein-labelled PMO: refractory to cell entry
[2]
  dystrophin expression in Purkinje cells of cerebellum: No dystrophin expression was observed
[3]; intraperitoneal total 7.6 μmol/kg over 4 days, without fluorescent label, 2 weeks post-administration, n=4, mean±SEM
  dystrophin-positive heart muscle fibres, 7.6 μmol/kg: 57±17 fibres
[3]; intraperitoneal total 10.9 μmol/kg over 2 days, n=4, mean±SEM
  dystrophin-positive heart muscle fibres, 10.9 μmol/kg: 33±8 fibres
[3]; single intraperitoneal 1 μmol/kg, 7 days, n=1 per group
  dystrophin-positive heart muscle fibres, single low dose: not
[4]
  exclusion of exon 23 from the dystrophin transcript: lack of exon exclusion
[5]
  percentage of dystrophin re-expression: 762.25
[6]
  muscle cell entry: refractory to muscle cell entry
[7]
  fluorescence signal (cell entry): only a background fluorescence signal
